Test results published in patent US7390806B2, “Antibiotics containing borinic acid complexes and methods of use” (Anacor Pharmaceuticals, Inc., priority 2002, dated 2008).
Converted amounts (≈) assume the structure as drawn. Where two headings read alike, the source gives them in different places.

How the values were obtained:
[1] = tested on: Candida glabrata ATCC 15126; assay: Antifungal in vitro MIC, Candida glabrata; type: cell-based; conditions: for MIC: Nakaseomyces glabratus
[2] = tested on: Microsporum canis ATCC 10214; assay: Antifungal in vitro MIC, Microsporum canis; type: cell-based; conditions: for MIC: Microsporum canis
[3] = tested on: Aspergillus fumigatus ATCC 204305; assay: Antifungal in vitro MIC, Aspergillus fumigatus; type: cell-based; conditions: for MIC: Aspergillus fumigatus
[4] = tested on: Candida albicans ATCC 90028; assay: Antifungal in vitro MIC, Candida albicans; type: cell-based; conditions: for MIC Candida albicans ATCC 90028: percent inhibition >= 80%
[5] = tested on: Trichophyton mentagrophytes ATCC 10270; assay: Antifungal in vitro MIC, Trichophyton mentagrophytes; type: cell-based; conditions: for MIC: Trichophyton mentagrophytes
[6] = tested on: Candida parapsilosis ATCC 22019; assay: Antifungal in vitro MIC, Candida parapsilosis; type: cell-based; conditions: for MIC: Lodderomyces parapsilosis
[7] = tested on: M. catarrhalis ATCC 25238; assay: MIC determination, M. catarrhalis ATCC 25238; type: cell-based; conditions: Table 1
S. aureus ATCC 29213 = assay: MIC determination, S. aureus ATCC 29213; type: cell-based, Staphylococcus aureus; conditions: Table 1
M. tuberculosis H37Rv = assay: Anti-mycobacterium in vitro activity, H37Rv; type: cell-based, Mycobacterium tuberculosis; conditions: Sensitive strain
[8] = tested on: S. epidermidis ATCC 12228; assay: MIC determination, S. epidermidis ATCC 12228; type: cell-based, Staphylococcus epidermidis; conditions: Table 1
E. faecalis ATCC 29212 = assay: MIC determination, E. faecalis ATCC 29212; type: cell-based, Enterococcus faecalis; conditions: Table 1
E. faecium CT-26 = assay: MIC determination, E. faecium CT-26; type: cell-based, Enterococcus faecium; conditions: Table 1
S. pneumoniae ATCC 6301 = assay: MIC determination, S. pneumoniae ATCC 6301; type: cell-based, Streptococcus pneumoniae; conditions: Table 1

Question: Which results are given for `Cc1ccc(B(OCCc2ccccn2)c2ccc(C)c(Cl)c2)cc1Cl` [Compound 131, Bis(3-Chloro-4-methylphenyl)borinic acid 2-pyridylethanol]?
Answer: MIC Candida glabrata ATCC 15126 ([1]; percent inhibition >= 80%): >32 µg/mL; MIC Microsporum canis ATCC 10214 ([2]; percent inhibition >= 80%): 32 µg/mL (≈ 83.3 µM); MIC Aspergillus fumigatus ATCC 204305 ([3]; percent inhibition >= 80%): >32 µg/mL; MIC Candida albicans ATCC 90028 [4]: 2 µg/mL (≈ 5.21 µM); MIC Trichophyton mentagrophytes ATCC 10270 ([5]; percent inhibition >= 80%): 32 µg/mL (≈ 83.3 µM); MIC Candida parapsilosis ATCC 22019 ([6]; percent inhibition >= 80%): >32 µg/mL

Question: With `Clc1ccc(B(OCc2cnc[nH]2)c2ccc(Cl)cc2)cc1` [Compound 126, Bis(4-Chlorophenyl)borinic acid 4-(hydroxymethyl)imidazole ester] as the compound, how does the “MIC Candida glabrata ATCC 15126” value ([1]; percent inhibition >= 80%) read?
Answer: >32 µg/mL

Question: What about the “MIC Microsporum canis ATCC 10214” value ([2]; percent inhibition >= 80%) of the same compound?
Answer: 16 µg/mL (≈ 48.3 µM)

Question: And the “MIC Aspergillus fumigatus ATCC 204305” value ([3]; percent inhibition >= 80%)?
Answer: >32 µg/mL

Question: And the “MIC Candida albicans ATCC 90028” value [4]?
Answer: 1 µg/mL (≈ 3.02 µM)

Question: And the “MIC Trichophyton mentagrophytes ATCC 10270” value ([5]; percent inhibition >= 80%)?
Answer: >32 µg/mL

Question: And the “MIC Candida parapsilosis ATCC 22019” value ([6]; percent inhibition >= 80%)?
Answer: 32 µg/mL (≈ 96.7 µM)

Question: For `CCn1ccnc1COB(c1ccc(C)c(Cl)c1)c1ccc(C)c(Cl)c1` [Compound 129, Bis(3-Chloro-4-methylphenyl)borinic acid 1-ethyl-2-(hydroxymethyl)-imidazole ester], which “MIC Candida glabrata ATCC 15126” value ([1]; percent inhibition >= 80%) is on record?
Answer: >32 µg/mL

Question: What about the “MIC Microsporum canis ATCC 10214” value ([2]; percent inhibition >= 80%) of the same compound?
Answer: 16 µg/mL (≈ 41.3 µM)

Question: What about the “MIC Aspergillus fumigatus ATCC 204305” value ([3]; percent inhibition >= 80%) of the same compound?
Answer: >32 µg/mL

Question: And the “MIC Candida albicans ATCC 90028” value [4]?
Answer: 1 µg/mL (≈ 2.58 µM)

Question: And the “MIC Trichophyton mentagrophytes ATCC 10270” value ([5]; percent inhibition >= 80%)?
Answer: 32 µg/mL (≈ 82.7 µM)

Question: What about the “MIC Candida parapsilosis ATCC 22019” value ([6]; percent inhibition >= 80%) of the same compound?
Answer: 32 µg/mL (≈ 82.7 µM)

Question: What does the source list for `Oc1cccc2cccnc12` [Compound 53, 8-hydroxyquinoline]?
Answer: MIC M. catarrhalis ATCC 25238 [7]: 2 micrograms per ml; MIC S. aureus ATCC 29213 (S. aureus ATCC 29213): 2 micrograms per ml; MIC ([1]; ATCC15126, read-out: MIC Candida glabrata ATCC 15126): > 32 µg/mL; M. tuberculosis MIC H37Rv (M. tuberculosis H37Rv): 0.775 µg/mL; MIC S. epidermidis ATCC 12228 [8]: 2 micrograms per ml; MIC ([2]; ATCC10214, read-out: MIC Microsporum canis ATCC 10214): 16 µg/mL (≈ 110 µM); MIC E. faecalis ATCC 29212 (E. faecalis ATCC 29212): 64 micrograms per ml; MIC E. faecium CT-26 (E. faecium CT-26): 4 micrograms per ml; MIC ([3]; ATCC204305, read-out: MIC Aspergillus fumigatus ATCC 204305): > 32 µg/mL; MIC ([4]; Candida albicans, ATCC90028, read-out: MIC Candida albicans ATCC 90028): 1 µg/mL (≈ 6.89 µM); MIC ([5]; ATCC10270, read-out: MIC Trichophyton mentagrophytes ATCC 10270): > 32 µg/mL; MIC ([6]; ATCC22019, read-out: MIC Candida parapsilosis ATCC 22019): 32 µg/mL (≈ 220 µM)

Question: Which results are given for `Oc1cccc2cccnc12` [Compound 55, 8-hydroxyquinoline]?
Answer: MIC M. catarrhalis ATCC 25238 [7]: 4 micrograms per ml; MIC S. aureus ATCC 29213 (S. aureus ATCC 29213): 2 micrograms per ml; MIC S. pneumoniae ATCC 6301 (S. pneumoniae ATCC 6301): 2 micrograms per ml; M. tuberculosis MIC H37Rv (M. tuberculosis H37Rv): 0.775 µg/mL; MIC S. epidermidis ATCC 12228 [8]: 1 micrograms per ml; MIC E. faecalis ATCC 29212 (E. faecalis ATCC 29212): 4 micrograms per ml; MIC E. faecium CT-26 (E. faecium CT-26): 2 micrograms per ml

Question: Which “MIC Candida glabrata ATCC 15126” value ([1]; percent inhibition >= 80%) does the source give for `Cc1ccc(B(OCc2nccn2C)c2ccc(C)c(Cl)c2)cc1Cl` [Compound 128, Bis(3-Chloro-4-methylphenyl)borinic acid 1-methyl-2-(hydroxymethyl)-imidazole ester] here?
Answer: 32 µg/mL (≈ 85.8 µM)

Question: And the “MIC Microsporum canis ATCC 10214” value ([2]; percent inhibition >= 80%)?
Answer: 12 µg/mL (≈ 32.2 µM)

Question: And the “MIC Aspergillus fumigatus ATCC 204305” value ([3]; percent inhibition >= 80%)?
Answer: >32 µg/mL

Question: And the “MIC Candida albicans ATCC 90028” value [4]?
Answer: 1 µg/mL (≈ 2.68 µM)

Question: And the “MIC Trichophyton mentagrophytes ATCC 10270” value ([5]; percent inhibition >= 80%)?
Answer: 16 µg/mL (≈ 42.9 µM)

Question: What about the “MIC Candida parapsilosis ATCC 22019” value ([6]; percent inhibition >= 80%) of the same compound?
Answer: 16 µg/mL (≈ 42.9 µM)

Question: With `Cc1ccc(B(OCc2cn(Cc3ccccc3)cn2)c2ccc(C)c(Cl)c2)cc1Cl` [Compound 127, Bis(3-Chloro-4-methylphenyl)borinic acid 1-benzyl-4-(hydroxymethyl)-imidazole ester] as the compound, how does the “MIC Candida glabrata ATCC 15126” value ([1]; percent inhibition >= 80%) read?
Answer: >32 µg/mL

Question: And the “MIC Microsporum canis ATCC 10214” value ([2]; percent inhibition >= 80%)?
Answer: 16 µg/mL (≈ 35.6 µM)

Question: And the “MIC Aspergillus fumigatus ATCC 204305” value ([3]; percent inhibition >= 80%)?
Answer: >32 µg/mL

Question: And the “MIC Candida albicans ATCC 90028” value [4]?
Answer: 1 µg/mL (≈ 2.23 µM)

Question: And the “MIC Trichophyton mentagrophytes ATCC 10270” value ([5]; percent inhibition >= 80%)?
Answer: 32 µg/mL (≈ 71.2 µM)

Question: And the “MIC Candida parapsilosis ATCC 22019” value ([6]; percent inhibition >= 80%)?
Answer: 16 µg/mL (≈ 35.6 µM)

Question: With `Cc1ccc(B(OCc2cn(C)cn2)c2ccc(C)c(Cl)c2)cc1Cl` [Compound 130, Bis(3-Chloro-4-methylphenyl)borinic acid 1-methyl-4-(hydroxymethyl)-imidazole ester] as the compound, how does the “MIC Candida glabrata ATCC 15126” value ([1]; percent inhibition >= 80%) read?
Answer: 0.5 µg/mL (≈ 1.34 µM)

Question: What about the “MIC Microsporum canis ATCC 10214” value ([2]; percent inhibition >= 80%) of the same compound?
Answer: 0.5 µg/mL (≈ 1.34 µM)

Question: And the “MIC Aspergillus fumigatus ATCC 204305” value ([3]; percent inhibition >= 80%)?
Answer: 0.5 µg/mL (≈ 1.34 µM)

Question: And the “MIC Candida albicans ATCC 90028” value [4]?
Answer: 1 µg/mL (≈ 2.68 µM)

Question: And the “MIC Trichophyton mentagrophytes ATCC 10270” value ([5]; percent inhibition >= 80%)?
Answer: 0.5 µg/mL (≈ 1.34 µM)

Question: And the “MIC Candida parapsilosis ATCC 22019” value ([6]; percent inhibition >= 80%)?
Answer: 0.5 µg/mL (≈ 1.34 µM)

Question: What does the source list for `C[C@@H]1[C@H](O)[C@@H](C)/C=C/C=C/C=C/C=C/C=C/C=C/C=C/[C@H](O[C@@H]2O[C@H](C)[C@@H](O)[C@H](N)[C@@H]2O)C[C@@H]2O[C@](O)(C[C@@H](O)C[C@@H](O)[C@H](O)CC[C@@H](O)C[C@@H](O)CC(=O)O[C@H]1C)C[C@H](O)[C@H]2C(=O)O` [Amphotericin B, reference compound]?
Answer: MIC Candida glabrata ATCC 15126 ([1]; percent inhibition >= 80%): 0.75 µg/mL (≈ 0.812 µM); MIC Microsporum canis ATCC 10214 ([2]; percent inhibition >= 80%): 0.5 µg/mL (≈ 0.541 µM); MIC Aspergillus fumigatus ATCC 204305 ([3]; percent inhibition >= 80%): 1 µg/mL (≈ 1.08 µM); MIC Candida albicans ATCC 90028 [4]: 1 µg/mL (≈ 1.08 µM); MIC Trichophyton mentagrophytes ATCC 10270 ([5]; percent inhibition >= 80%): 1 µg/mL (≈ 1.08 µM); MIC Candida parapsilosis ATCC 22019 ([6]; percent inhibition >= 80%): 0.75 µg/mL (≈ 0.812 µM)

Question: Which MIC ([1]; ATCC15126, percent inhibition >= 80%, read-out: MIC Candida glabrata ATCC 15126) does the source give for `OC(Cn1cncn1)(Cn1cncn1)c1ccc(F)cc1F` [Fluconazole, reference compound] here?
Answer: 3 µg/mL (≈ 9.8 µM)

Question: And the MIC ([2]; ATCC10214, percent inhibition >= 80%, read-out: MIC Microsporum canis ATCC 10214)?
Answer: 16 µg/mL (≈ 52.2 µM)

Question: And the MIC ([3]; ATCC204305, percent inhibition >= 80%, read-out: MIC Aspergillus fumigatus ATCC 204305)?
Answer: > 64 µg/mL

Question: What about the MIC ([5]; ATCC10270, percent inhibition >= 80%, read-out: MIC Trichophyton mentagrophytes ATCC 10270) of the same compound?
Answer: 16 µg/mL (≈ 52.2 µM)

Question: What about the MIC ([6]; ATCC22019, percent inhibition >= 80%, read-out: MIC Candida parapsilosis ATCC 22019) of the same compound?
Answer: 2.5 µg/mL (≈ 8.16 µM)
